Source: US8133885B2, “Non steroidal glucocorticoid receptor modulators” (Merck Sharp & Dohme Corp., priority 2005, dated 2012)
Read-outs that look alike come from different tables or passages of the source.

Assays:
[1] = molecular target: T1, recombinant human-GR (GR) (Homo sapiens, UniProt P04150); assay: Glucocorticoid Receptor Competitor Assay kit (PanVera), fluorescence polarisation binding; conditions: fluorescence polarisation competition with fluormone GS1 1 nM, GR 4 nM, 90 minutes room temperature
T1 construct: purchased PanVera
T1 sequence (P04150 1-777): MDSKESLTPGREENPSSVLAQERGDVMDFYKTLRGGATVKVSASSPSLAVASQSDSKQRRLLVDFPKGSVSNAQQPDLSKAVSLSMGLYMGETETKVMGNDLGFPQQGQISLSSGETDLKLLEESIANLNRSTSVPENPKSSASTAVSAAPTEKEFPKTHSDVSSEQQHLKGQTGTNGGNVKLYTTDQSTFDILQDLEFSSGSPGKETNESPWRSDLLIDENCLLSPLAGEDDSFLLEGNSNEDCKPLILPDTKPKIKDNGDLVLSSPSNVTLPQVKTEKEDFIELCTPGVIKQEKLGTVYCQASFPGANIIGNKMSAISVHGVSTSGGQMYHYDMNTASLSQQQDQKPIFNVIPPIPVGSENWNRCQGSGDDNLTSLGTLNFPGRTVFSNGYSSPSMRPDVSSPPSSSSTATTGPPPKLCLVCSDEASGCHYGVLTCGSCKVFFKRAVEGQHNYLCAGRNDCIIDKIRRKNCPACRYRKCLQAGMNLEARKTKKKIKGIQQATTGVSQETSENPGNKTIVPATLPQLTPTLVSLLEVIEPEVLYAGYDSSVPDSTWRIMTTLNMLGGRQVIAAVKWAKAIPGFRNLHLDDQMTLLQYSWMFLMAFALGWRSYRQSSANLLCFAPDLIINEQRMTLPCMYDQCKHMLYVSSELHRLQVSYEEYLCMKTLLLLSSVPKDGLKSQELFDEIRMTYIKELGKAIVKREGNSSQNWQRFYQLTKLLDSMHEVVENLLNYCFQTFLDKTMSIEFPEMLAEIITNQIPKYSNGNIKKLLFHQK
Experimental: The affinity of compounds was tested using a Glucocorticoid Receptor Competitor Assay kit (PanVera®). Components of the kit were thawed from −80° C. on ice (Fluormone GS1, recombinant human-GR (GR)) or at room temperature (GR screening buffer, stabilising peptide and DTT). 10 mM test compounds were manually diluted to 20 μM then serially diluted to a final concentration range of 10 μM to 0.1 nM using the BioMek 2000 (Beckman-Coulter) into a black walled 384 welled plate (Matrix technologies). In the following order: fluormone GS1 (1 nM final concentration) is added to all wells excluding the buffer control wells, GR (4 nM final concentration) is added to all wells except minimum and buffer control wells, cortisol (10 μM final concentration) is added to fluormone GS1 control wells only, buffer is added to all wells to a final volume of 40 μl. The plate is covered and incubated at room temperature with agitation for 90 minutes. Readings were taken using the Analyst (LJL) in fluorescence polarisation reading mode. The MilliP ratio is calculated from cps readings obtained in parallel and perpendicular mode. The percent effect of the bound ligand is calculated at each concentration and the dose response curves plotted allowing the EC50 to be calculated. […]

[2] = tested on: LPS-induced TNFα; assay: Inhibition of LPS-induced TNFα in serum of mice; format: in vivo; conditions: Mus musculus, read-out: ED50 for inhibition of LPS-induced TNFα
Experimental: The potency of compounds to inhibit inflammation was quantified in a model in which mice were treated with lipopolysaccharide (LPS). Anti-inflammatory effects were quantified as inhibition of LPS-induced TNFα (S. R. Hyde & R. E. McCallum, Infection & Immunity, 60; 976-982 (1992)). Mice were treated i.p. with 0.5 mg/kg LPS. […] 1½ hours after LPS induction, serum was collected and mice were sacrificed. TNFα levels in serum were quantified using a commercially available Elisa-kit according to the descriptions of the supplier.

[3] = mice, 0.5 mg/kg LPS i.p., compound oral or subcutaneous 1 hour before LPS, serum 1½ hours after LPS

SMILES	ED50 [2, 3]	other results
CC#C[C@]1(O)CC[C@H]2[C@@H]3CCC4=CC(=O)CCC4=C3[C@@H](c3ccc4c(c3)OCO4)C[C@@]21C		EC50 [1]: 10 nM
CN1c2ccccc2[C@@H]2C[C@@H](NC(=O)C(F)(F)F)CCN2c2ccc([N+](=O)[O-])cc21 (relative stereo) [Example 2, cis-2,2,2-trifluoro-N-(1,2,3,4,10,14b-hexahydro-10-methyl-8-nitrodibenzo[b,f]pyrido[1,2-d][1,4]diazepin-2-yl)acetamide]	0.5 to 20 mg/kg	
CN1c2ccccc2[C@@H]2C[C@@H](NC(=O)C(F)(F)F)CCN2c2ccc(C#N)cc21 (relative stereo) [Example 3, cis-N-(8-cyano-1,2,3,4,10,14b-hexahydro-10-methyldibenzo[b,f]pyrido[1,2-d][1,4]diazepin-2-yl)-2,2,2-trifluoroacetamide]	0.5 to 20 mg/kg	
CN1c2ccccc2[C@@H]2C[C@@H](NC(=O)C(F)(F)F)CCN2c2ccc(C(=O)Nc3ccccc3)cc21 (relative stereo) [Example 4, cis-1,2,3,4,10,14b-hexahydro-10-methyl-N-phenyl-2-(2,2,2-trifluoroacetylamino)dibenzo[b,f]pyrido[1,2-d][1,4]diazepine-8-carboxamide]	0.5 to 20 mg/kg	
CN1c2ccccc2[C@@H]2C[C@@H](NC(=O)C(Cl)Cl)CCN2c2ccc(C#N)cc21 (relative stereo) [Example 5, cis-2,2-dichloro-N-(8-cyano-1,2,3,4,10,14b-hexahydro-10-methyldibenzo-[b,f]pyrido[1,2-d][1,4]diazepin-2-yl)acetamide]	0.5 to 20 mg/kg	
CN1c2ccccc2[C@@H]2C[C@@H](NC(=O)C(F)(F)F)CCN2c2cc(Cl)c(C#N)cc21 (relative stereo) [Example 9, cis-N-(7-chloro-8-cyano-1,2,3,4,10,14b-hexahydro-10-methyl-dibenzo-[b,f]pyrido[1,2-d][1,4]diazepin-2-yl)-2,2,2-trifluoroacetamide]		ED50 [2]: 0.5 to 20 mg/kg
Cc1nnsc1C(=O)N[C@H]1CCN2c3ccc([N+](=O)[O-])cc3N(C)c3ccccc3[C@@H]2C1 (relative stereo) [Example 31, cis-N-(1,2,3,4,10,14b-hexahydro-10-methyl-8-nitrodibenzo[b,f]pyrido[1,2-d][1,4]diazepin-2-yl)-4-methyl-1,2,3-thiadiazole-5-carboxamide]	0.5 to 20 mg/kg	
C[C@]12C=CC(=O)C=C1CC[C@@H]1[C@@H]2[C@@H](O)C[C@@]2(C)[C@H]1CC[C@]2(O)C(=O)CO [prednisolone, reference compound]	0.5 mg/kg	
